Source: patent US20040127396A1, “Use of furin and furin-like protease inhibitors in the treatment of inflammatory or matrix remodelling diseases” (priority 2000, published 2004)

Tests used:
[1] = test system: proprotein convertases including furin, PC6B, PC3, PC2, PACE-4 and PC7; details: cited from earlier work
[2] = test system: TNFα release from MonoMac-1 cells; assay: TNFα release from LPS/PMA-stimulated MonoMac-1 cells (ELISA); format: cell-based, human; details: 22 hrs preincubation, then LPS and PMA 3 hours, FIG. 5D
Method: To investigate whether the levels of TACE maturation observed in LoVo transfectants impacts TACE-related activities, we first measured cell-surface p75 TNF receptor expression as a marker for TACE cell-surface activity. Briefly, LoVo NEO and LoVo FUR2 cell samples were labeled with anti-TACE or anti-TNF p75 receptor antibodies (Catlag laboratories, Burlingame, Calif.) and cell fluorescence was analyzed on a FACScan (Becton Dickinson). […] Next, we measured the ability of Dec-RVKR-CH2Cl to block TNFα release from MonoMac-1 cells, a human monocytic cell line known to produce high levels of this cytokine (50). For this, MonoMac-1 cells were preincubated for 22 hrs with varying concentrations of Dec-RVKR-CH2Cl, then 500 ng/ml LPS and 100 ng/ml PMA were added. After 3 hours incubation with PMA and LPS, the supernatants were tested for TNF-α production using a TNF-α-specific ELISA assay (R&D Systems, Minneapolis, Minn.).

[3] = test system: TACE maturation in LoVo NEO cells; assay: TACE maturation in LoVo NEO cells by Western blotting; format: cell-based, human; details: 24 hrs, various concentrations, FIG. 5B
Excerpt: To assess the involvement of furin in TACE endoproteolytic processing, applicant first used a furin-deficient cell line, the LoVo cells. These are human colon carcinoma cells which have a point mutation in both alleles of the fur gene leading to production of a defective enzyme (reference 46). These furin knock-out cells have been extensively used to study the contribution of furin in a cellular context (references 10, 38 and 47). LoVo cells were transfected with wild type furin and two stable transfectants LoVoFUR1 and LoVoFUR2 and control transfectant LoVoNEO have been generated accordingly to their acquired gentamycin resistance. Cell lysates were assessed by Western blotting for the production of TACE proteolytic fragments in immunoblotting using TACE-specific antibodies (Chemicon International, CA). […]
To define if proprotein convertases other than furin are involved in TACE maturation, LoVo NEO cells were incubated for 24 hrs in the presence of Dec-RVKR-CH2Cl, a synthetic peptide that mimics proprotein recognition site. […] LoVo NEO cells were incubated for 24 hrs in the presence of various concentrations of Dec-RVKR-CH2Cl, and cell lysates were assessed for TACE maturation by Western blotting as described above.

Substance: Dec-RVKR-CH2Cl
- inhibition of enzymatic activity of proprotein convertases [1]: efficiently inhibit
- TNFα released [2]: blocked almost completely
- TACE maturation [3]: further inhibition of TACE maturation
